Experimental findings from US10584115B2, “Substituted pyridine and pyrazine BMI-1 inhibitors” (PTC Therapeutics, Inc., priority 2013, dated 2020) are described below.

Structures are written as SMILES. Structures can show the parent of a compound that is named as a salt.

The first assay has as its system Bmi-1 protein. In words: Sandwich ELISA Assay (Bmi-1 protein level in HT-1080 cells after compound treatment). The format is cell-based. Particulars: Table 1, Bmi-1 sandwich ELISA, read-out: ELISA EC50 value for Bmi-1 protein. The procedure, abridged: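 Sandwich ELISA quantified Bmi-1 protein against recombinant standard (125–8000 pg/mL), with lysates captured overnight at 4 °C and signal by HRP/TMB at 450 nm (570 nm reference). Lysates came from HT-1080 cells incubated 40–48 h with test compounds in 0.5% DMSO.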
On the technique in general: An ELISA detects its analyte on a solid surface through an enzyme-linked reagent.
Turning to `OCc1cc(Nc2ccc(C(F)(F)F)cc2)nc(-c2c(C(F)(F)F)nc3ccccn23)c1` [Cpd 219, (2-[2-(trifluoromethyl)imidazo[1,2-a]pyridin-3-yl]-6-{[4-(trifluoromethyl)phenyl]amino}pyridin-4-yl)methanol], the EC50 is 10 to 100 nM.
The same measure, in the same setting: under `Cc1nc2ccccc2n1-c1cncc(Nc2ccc(CO)cc2)n1` [compound 152, (4-{[6-(2-methyl-1H-benzimidazol-1-yl)pyrazin-2-yl]amino}phenyl)methanol] stands 10 to 100 nM; under `Cc1nc2cc(F)c(F)cc2n1-c1cc(C#N)cc(Nc2ccc(OC(F)F)cc2)n1` [compound 242, 2-{[4-(difluoromethoxy)phenyl]amino}-6-(5,6-difluoro-2-methyl-1H-benzimidazol-1-yl)pyridine-4-carbonitrile], 10 to 100 nM.
The same measure, in the same setting: to `Cc1nc2ccccc2n1-c1cncc(Nc2ccc(C(N)=O)cc2)n1` [compound 185, 4-{[6-(2-methyl-1H-benzimidazol-1-yl)pyrazin-2-yl]amino}benzamide] belongs 100 to 3000 nM; to `N#Cc1cc(Nc2ccc(OC(F)F)cc2)nc(-c2c(C(F)(F)F)nc3n2CCCC3)c1` [Cpd 237, 2-{[4-(difluoromethoxy)phenyl]amino}-6-[2-(trifluoromethyl)-5,6,7,8-tetrahydroimidazo[1,2-a]pyridin-3-yl]pyridine-4-carbonitrile], 1 to 10 nM; to `CCc1nn2ccccc2c1-c1cc(C#N)cc(Nc2ccc(OC(F)F)cc2)n1` [compound 527, 2-{[4-(difluoromethoxy)phenyl]amino}-6-(2-ethylpyrazolo[1,5-a]pyridin-3-yl)pyridine-4-carbonitrile], 10 to 100 nM.
The same measure, in the same setting: to `Cc1nc2cc(F)c(F)cc2n1-c1cncc(Nc2ccc(Cl)nc2)n1` [compound 405, N-(6-chloropyridin-3-yl)-6-(5,6-difluoro-2-methyl-1H-benzimidazol-1-yl)pyrazin-2-amine] belongs 100 to 3000 nM; to `COc1ccc2nc(C(F)(F)F)c(-c3cncc(Nc4ccc(OC(F)(F)F)cc4)n3)n2c1` [Cpd 45, 6-[6-methoxy-2-(trifluoromethyl)imidazo[1,2-a]pyridin-3-yl]-N-[4-(trifluoromethoxy)phenyl]pyrazin-2-amine], 10 to 100 nM.
Consider `COc1ccc(Nc2cncc(-c3cccc4nc(C5CC5)cn34)n2)cc1` [compound 86, 6-(2-cyclopropylimidazo[1,2-a]pyridin-5-yl)-N-(4-methoxyphenyl)pyrazin-2-amine], for which the half-maximal effective concentration (EC50) fell in the range of 10 to 100 nM.
Regarding `Cc1nc2ccccc2n1-c1cncc(Nc2ccc(CN)cc2)n1` [154a, N-[4-(aminomethyl)phenyl]-6-(2-methyl-1H-benzimidazol-1-yl)pyrazin-2-amine trifluoroacetate], the EC50 lay in the range of 10 to 100 nM.
On to `Cc1nc2ccccc2n1-c1cncc(Nc2ccc(C(F)(F)F)cc2F)n1` [compound 644, N-[2-fluoro-4-(trifluoromethyl)phenyl]-6-(2-methyl-1H-benzimidazol-1-yl)pyrazin-2-amine], for which the EC50 fell in the range of 10 to 100 nM.
Still for that read-out and setting: under `Nc1cc(Nc2ccc(C(F)(F)F)cc2)nc(-c2c(CO)nc3ccccn23)c1` [289a, [3-(4-amino-6-{[4-(trifluoromethyl)phenyl]amino}pyridin-2-yl)imidazo[1,2-a]pyridin-2-yl)methanol hydrochloride (1:2)] stands 10 to 100 nM; under `Cc1nc2ccccc2n1-c1cncc(Nc2ccc(C(F)(F)F)c(N)c2)n1` [compound 506, N^1-[6-(2-methyl-1H-benzimidazol-1-yl)pyrazin-2-yl]-4-(trifluoromethyl)benzene-1,3-diamine], 10 to 100 nM; under `Cc1nc2c([N+](=O)[O-])cccc2n1-c1cncc(Nc2ccc(C(F)(F)F)cc2)n1` [compound 284, 6-(2-methyl-4-nitro-1H-benzimidazol-1-yl)-N-[4-(trifluoromethyl)phenyl]pyrazin-2-amine], 100 to 3000 nM.
`CCOc1nc2ccccc2n1-c1cncc(Nc2ccc(C(F)(F)F)cc2)n1` [compound 81, 6-(2-ethoxy-1H-benzimidazol-1-yl)-N-[4-(trifluoromethyl)phenyl]pyrazin-2-amine]: the EC50 lay within 100 to 3000 nM.
Regarding `N#Cc1nc2ccccc2n1-c1cncc(Nc2ccc(OC(F)(F)F)cc2)n1` [compound 184, 1-(6-{[4-(trifluoromethoxy)phenyl]amino}pyrazin-2-yl)-1H-benzimidazole-2-carbonitrile], the EC50 lay in the range of 100 to 3000 nM.
Still for that read-out and setting: to `[O-][n+]1cc(Nc2ccc(C(F)(F)F)cc2)nc(-n2c(C3CC3)nc3ncc(F)cc32)c1` [compound 533, 6-(2-cyclopropyl-6-fluoro-1H-imidazo[4,5-b]pyridin-1-yl)-N-[4-(trifluoromethyl)phenyl]pyrazin-2-amine 4-oxide] belongs 10 to 100 nM.
The same measure, in the same setting: under `Cc1ccc(Nc2cc(C#N)cc(-n3c(C)nc4cc(F)c(F)cc43)n2)cc1` [compound 599, 2-(5,6-difluoro-2-methyl-1H-benzimidazol-1-yl)-6-[(4-methylphenyl)amino]pyridine-4-carbonitrile] stands 10 to 100 nM; under `FC(F)Oc1ccc(Nc2cncc(-c3cnc4ccccn34)n2)cc1` [compound 477, N-[4-(difluoromethoxy)phenyl]-6-(imidazo[1,2-a]pyridin-3-yl)pyrazin-2-amine], 100 to 3000 nM; under `Cc1nc2cnccc2n1-c1cncc(Nc2ccc(C(F)(F)F)cc2)n1` [compound 166, 6-(2-methyl-1H-imidazo[4,5-c]pyridin-1-yl)-N-[4-(trifluoromethyl)phenyl]pyrazin-2-amine], 100 to 3000 nM.
The same measure, in the same setting: under `COc1ccc(Nc2cccc(-c3c(C(F)(F)F)nc4ccccn34)n2)cc1F` [Cpd 8, N-(3-fluoro-4-methoxyphenyl)-6-[2-(trifluoromethyl)imidazo[1,2-a]pyridin-3-yl]pyridin-2-amine] stands 1 to 10 nM.
Consider `CCc1nc2ccc(F)cc2n1-c1cncc(Nc2ccccc2)n1` [compound 620, 6-(2-ethyl-6-fluoro-1H-benzimidazol-1-yl)-N-phenylpyrazin-2-amine], for which the 50% effective concentration (EC50) fell in the range of 100 to 3000 nM.
In the case of `Cc1nc2cc(Cl)ccc2n1-c1cncc(Nc2ccc(OC(F)F)cc2)n1` [compound 224, 6-(5-chloro-2-methyl-1H-benzimidazol-1-yl)-N-[4-(difluoromethoxy)phenyl]pyrazin-2-amine], the EC50 lay in the range of 10 to 100 nM.
The same measure, in the same setting: to `CCc1nn2ccccc2c1-c1cncc(Nc2ccccc2)n1` [compound 631, 6-(2-ethylpyrazolo[1,5-a]pyridin-3-yl)-N-phenylpyrazin-2-amine] belongs 100 to 3000 nM.
Still for that read-out and setting: under `Cc1nc2cc(Cl)c(Cl)cc2n1-c1cncc(Nc2ccc(C(F)(F)F)cc2)n1` [compound 193, 6-(5,6-dichloro-2-methyl-1H-benzimidazol-1-yl)-N-[4-(trifluoromethyl)phenyl]pyrazin-2-amine] stands 10 to 100 nM; under `Cc1nn(C)c(C)c1-c1cccc(Nc2ccc(OC(F)(F)F)cc2)n1` [compound 144, N-[4-(trifluoromethoxy)phenyl]-6-(1,3,5-trimethyl-1H-pyrazol-4-yl)pyridin-2-amine], 100 to 3000 nM; under `FC(F)(F)c1ccc(Nc2cncc(-c3c(C(F)(F)F)nc4ccccn34)n2)cc1` [Cpd 6, 6-[2-(trifluoromethyl)imidazo[1,2-a]pyridin-3-yl]-N-[4-(trifluoromethyl)phenyl]pyrazin-2-amine], 1 to 10 nM.
On the same count and under the same terms, to `Cc1nc2ccccc2n1-c1cncc(Nc2ccc(B3OC(C)(C)C(C)(C)O3)cc2)n1` [compound 433, 6-(2-methyl-1H-benzimidazol-1-yl)-N-[4-(4,4,5,5-tetramethyl-1,3,2-dioxaborolan-2-yl)phenyl]pyrazin-2-amine] belongs 100 to 3000 nM; to `Cc1nc2cc(F)c(F)cc2n1-c1cc(N)cc(Nc2ccc(Cl)cc2)n1` [compound 658, N^2-(4-chlorophenyl)-6-(5,6-difluoro-2-methyl-1H-benzimidazol-1-yl)pyridine-2,4-diamine], 10 to 100 nM; to `CCc1nn2ccccc2c1-c1cncc(Nc2cccc(OC)c2)n1` [compound 640, 6-(2-ethylpyrazolo[1,5-a]pyridin-3-yl)-N-(3-methoxyphenyl)pyrazin-2-amine], 10 to 100 nM.
As for `Cc1nc2ccccc2n1-c1cncc(Nc2ccc(OC(F)(F)C(F)F)cc2)n1` [compound 307, 6-(2-methyl-1H-benzimidazol-1-yl)-N-[4-(1,1,2,2-tetrafluoroethoxy)phenyl]pyrazin-2-amine], the EC50 is 100 to 3000 nM.
For `Cc1nc2ccccc2n1-c1cccc(Nc2ccc(Cl)cc2)n1` [Cpd 606, N-(4-chlorophenyl)-6-(2-methyl-1H-benzimidazol-1-yl)pyridin-2-amine], the EC50 is 100 to 3000 nM.
The same measure, in the same setting: under `Cc1nc2ccc(NCCO)cc2n1-c1cncc(Nc2ccc(C(F)(F)F)cc2)n1` [compound 397, 2-{[2-methyl-1-(6-{[4-(trifluoromethyl)phenyl]amino}pyrazin-2-yl)-1H-benzimidazol-6-yl]amino}ethanol] stands 100 to 3000 nM.
The same measure, in the same setting: under `Cc1nc2ccccc2n1-c1cncc(Nc2ccc(OC(F)(F)F)cc2)n1` [compound 19, 6-(2-methyl-1H-benzimidazol-1-yl)-N-[4-(trifluoromethoxy)phenyl]pyrazin-2-amine] stands 100 to 3000 nM.
On the same count and under the same terms, to `Cc1nc2ccccc2n1-c1cncc(Nc2ccc(OCC(F)(F)F)cc2)n1` [compound 306, 6-(2-methyl-1H-benzimidazol-1-yl)-N-[4-(2,2,2-trifluoroethoxy)phenyl]pyrazin-2-amine] belongs 100 to 3000 nM; to `O=C(c1ccc(Nc2cncc(-c3c(C(F)(F)F)nc4ccccn34)n2)cc1)C(F)(F)F` [compound 212, 2,2,2-trifluoro-1-[4-({6-[2-(trifluoromethyl)imidazo[1,2-a]pyridin-3-yl]pyrazin-2-yl}amino)phenyl]ethanone], 100 to 3000 nM.

Still in this assay, the particulars now being: read-out: ELISA EC50 value for Bmi-1 protein, Table 1, Bmi-1 sandwich ELISA.
As for `Cc1nc2ccccc2n1-c1cc(C#N)cc(Nc2ccc(C(F)(F)F)cc2)n1` [Cpd 132, 2-(2-methyl-1H-benzimidazol-1-yl)-6-{[4-(trifluoromethyl)phenyl]amino}pyridine-4-carbonitrile], the EC50 is 10 to 100 nM.

As a reminder, the EC50 is the concentration needed to bring the measured effect to its halfway point.
